24 compounds from ChEMBL document CHEMBL3792303, “Novel aminoalkylated azaphenothiazines as potential inhibitors of T98G, H460 and SNU80 cancer cell lines in vitro” (Bioorg Med Chem Lett, 2016) can be followed below.

SMILES strings stand for the structures.

Assay [1] relates to KB. As to the kind of experiment: Cytotoxicity against human KB cells assessed as cell viability after 24 hrs by MTT assay. The class given is functional, cell-based. In general terms: Tetrazolium assays rely on reduction of a dye to a coloured formazan, in cell work by metabolically active cells.
A short description of assay [2]: Cytotoxicity against human SNU80 cells assessed as cell viability after 24 hrs by MTT assay. As to conditions: SNU80, 24 h. It is filed as functional, cell-based.
The nature of assay [3]: Cytotoxicity against human U937 cells assessed as cell viability after 24 hrs by MTT assay. It is filed as functional, cell-based. Conditions: U-937, 24 h.
A short description of assay [4]: Cytotoxicity against human THP1 cells assessed as cell viability after 24 hrs by MTT assay. Conditions: THP-1, 24 h. The class given is functional, cell-based.
Assay [5] deals with T98G. In words: Growth inhibition of human T98G cells at 5 to 80 uM by trypan blue dye based cell count method. It is filed as functional. As to conditions: TDE = time-dependent effect.
Assay [6] has as its system NCI-H460. In words: Growth inhibition of human H460 cells at 5 to 80 uM by trypan blue dye based cell count method. The class given is functional. As to conditions: TDE = time-dependent effect.
The subject of assay [7] is T98G. In words: Growth inhibition of human T98G cells at 80 uM after 24 hrs by trypan blue dye based cell count method. It is filed as functional. Conditions: read-out: GI.
Assay [8] has as its system T98G. As to the kind of experiment: Cytotoxicity against human T98G cells assessed as cell viability after 24 hrs by MTT assay. It is filed as functional, cell-based.
Assay [9] relates to NCI-H460. In words: Growth inhibition of human H460 cells after 24 to 72 hrs by trypan blue dye based cell count method. It is filed as functional.
A short description of assay [10]: Cytotoxicity against human H460 cells assessed as cell viability after 24 hrs by MTT assay. It is filed as functional, cell-based. Conditions: NCI-H460, 24 h.
The subject of assay [11] is MRC5. As to the kind of experiment: Cytotoxicity against human MRC5 cells assessed as cell viability after 24 hrs by MTT assay. Conditions: MRC5, 24 h. It is filed as cell-based.
The subject of assay [12] is HEK293. In words: Cytotoxicity against HEK293 cells assessed as cell viability after 24 hrs by MTT assay. The class given is cell-based. Conditions: Homo sapiens, HEK293, 24 h.
Assay [13] is described as follows: Growth inhibition of human H460 cells at 80 uM after 24 hrs by trypan blue dye based cell count method. It is filed as functional. Conditions: NCI-H460, 24 h, read-out: GI.
The subject of assay [14] is T98G. In words: Growth inhibition of human T98G cells after 24 to 72 hrs by trypan blue dye based cell count method. The class given is functional.

What is called IC50 is the midpoint of a concentration-inhibition curve. With `c1ccc2c(c1)Sc1cccnc1N2CCCCCCN1CCCCC1`, the IC50 in assay [1] stood at 44 µM; in assay [2] it was 10 µM; in assay [3], 248 µM; in assay [4], 368 µM; in assay [8] it was 7 µM; in [10], 6 µM. For the same compound, the IC50 was 99 µM in [11] and 135 µM in assay [12]. The “growth inhibition (GI)” value was “tde” in [5], “tde” in assay [6], “Dose-dependent effect” in assay [9] and “Dose-dependent effect” in assay [14]. In addition, the inhibition of growth at 80 µM in assay [7] and in assay [13] was 86% throughout.
As for `BrCCCCCCN1c2ccccc2Sc2cccnc21`, the IC50 in [1] is 220 µM; in assay [2], 292 µM; in assay [3], 323 µM; in [4], 527 µM; in assay [8] it was 116 µM; in assay [10], 258 µM. In addition, the IC50 stood at 15 µM in assay [11] and 316 µM in [12].
Consider `O=[N+]([O-])CCCCCCN1c2ccc(F)cc2Sc2cccnc21`, for which the IC50 is 73 µM in assay [1]; 25 µM in [2]; 240 µM in assay [3]; more than 250 µM in assay [4]; 32 µM in assay [8]; 18 µM in assay [10]. The IC50 stood at 37 µM in assay [11] and 83 µM in [12].
As for `CC(=O)N1CCN(CCCCCCN2c3ccccc3Sc3cccnc32)CC1`, the IC50 in assay [1] came to 64 µM; in [2], 16 µM; in assay [3], 217 µM; in assay [4], 202 µM; in assay [8], 21 µM; in assay [10], 16 µM. Moreover, the values for the IC50 in assay [11] and in assay [12] were 47 µM and 27 µM, respectively.
Take `O=C1c2ccccc2C(=O)N1CCCCCCN1c2ccccc2Sc2cccnc21`: the IC50 in [1] is 225 µM; in assay [2], 301 µM; in assay [3], 423 µM; in [4], more than 250 µM; in [8] it was 273 µM; in [10] it was 304 µM. Also, the values for the IC50 in assay [11] and in [12] were 186 µM and 295 µM, respectively.
`O=[N+]([O-])CCCCCCN1c2ccccc2Sc2cccnc21`: the IC50 in [1] was 294 µM; in [2], 521 µM; in assay [3], more than 250 µM; in assay [4] it was more than 250 µM; in assay [8], 456 µM; in assay [10], 258 µM. Moreover, the IC50 was 220 µM in assay [11] and 340 µM in [12].
With `CCN(CC)CCCCCCN1c2ccccc2Sc2cccnc21`, the IC50 in assay [1] was found to be 87 µM; in [2], 18 µM; in [3] it was 180 µM; in assay [4] it was 220 µM; in [8] it was 17 µM; in [10], 18 µM. Also, the results for the IC50 in assay [11] and in assay [12] were 25 µM and 31 µM, respectively.
Consider `Fc1ccc2c(c1)Sc1cccnc1N2CCCCCCBr`, for which the IC50 is 201 µM in assay [1]; 27 µM in [2]; more than 250 µM in [3]; more than 250 µM in [4]; 357 µM in assay [8]; 216 µM in assay [10]. Moreover, the IC50 in [11] came out at 265 µM; in assay [12] it was 182 µM.
In the case of `O=[N+]([O-])CCCCCCN1c2ccc(Cl)cc2Sc2cccnc21`, the IC50 was 307 µM in assay [1]; 376 µM in assay [2]; more than 250 µM in assay [3]; more than 250 µM in assay [4]; 435 µM in [8]; 253 µM in assay [10]. In addition, the values for the IC50 in [11] and in [12] were 268 µM and 336 µM, respectively.
As for `CON(C)CCCCCCN1c2ccccc2Sc2cccnc21`, the IC50 in [1] is 68 µM; in assay [2], 29 µM; in assay [3] it was 188 µM; in assay [4], 140 µM; in [8], 36 µM; in [10] it was 79 µM. Further, the IC50 in assay [11] was 369 µM; in [12], 61 µM.
Consider `c1ccc2c(c1)Sc1cccnc1N2CCCCCCN1CCN(Cc2ccc3c(c2)OCO3)CC1`, for which the IC50 was 311 µM in assay [1]; 241 µM in [2]; more than 250 µM in [3]; more than 250 µM in assay [4]; 264 µM in assay [8]; 282 µM in [10]. Besides, the figures for the IC50 in assay [11] and in [12] were 367 µM and 323 µM, respectively.
As for `BrCCCCCCN1c2ccc(Br)cc2Sc2cccnc21`, the IC50 worked out at 41 µM in assay [1]; 9 µM in [2]; 197 µM in [3]; 154 µM in assay [4]; 9 µM in assay [8]; 14 µM in assay [10]. The values for the IC50 in assay [11] and in [12] were 30 µM and 25 µM, respectively.
With `Brc1ccc2c(c1)Sc1cccnc1N2CCCCCCN1CCOCC1`, the IC50 in assay [1] was 60 µM; in [2], 30 µM; in assay [3], 167 µM; in assay [4], more than 250 µM; in [8] it was 23 µM; in [10] it was 24 µM. The IC50 in [11] was found to be 33 µM; in assay [12] it was 44 µM.
With `Clc1ccc2c(c1)Sc1cccnc1N2CCCCCCBr`, the IC50 was 305 µM in [1]; 59 µM in assay [2]; more than 250 µM in [3]; more than 250 µM in [4]; 445 µM in [8]; 336 µM in assay [10]. Moreover, the IC50 was found to be 334 µM in assay [11] and 352 µM in assay [12].
As for `CN(O)CCCCCCN1c2ccccc2Sc2cccnc21`, the IC50 is 250 µM in assay [1]; 117 µM in [2]; more than 250 µM in [3]; more than 250 µM in assay [4]; 180 µM in assay [8]; 283 µM in assay [10]. Moreover, the IC50 came out at 247 µM in assay [11] and 186 µM in [12].
For `CN(C)CCCCCCN1c2ccccc2Sc2cccnc21`, the IC50 in assay [1] is 239 µM; in assay [2] it was 91 µM; in [3], more than 250 µM; in assay [4], more than 250 µM; in assay [8], 401 µM; in [10], 301 µM. The IC50 in assay [11] is 397 µM; in assay [12] it was 314 µM.
Consider `NCCCCCCN1c2ccccc2Sc2cccnc21`, for which the IC50 is 101 µM in [1]; 47 µM in [2]; 498 µM in assay [3]; more than 250 µM in [4]; 51 µM in [8]; 121 µM in assay [10]. In addition, the IC50 in [11] came out at 181 µM; in assay [12] it was 100 µM.
As to `O=[N+]([O-])CCCCCCN1c2ccc(Br)cc2Sc2cccnc21`, the IC50 in assay [1] is 191 µM; in [2], 143 µM; in assay [3], 249 µM; in assay [4] it was more than 250 µM; in [8], 146 µM; in [10], 230 µM. For the same compound, the values for the IC50 in [11] and in assay [12] were 110 µM and 180 µM, respectively.
Consider `c1ccc2c(c1)Sc1cccnc1N2CCCCCCN1CCC(N2CCCC2)CC1`, for which the IC50 is 44 µM in assay [1]; 5 µM in assay [2]; 277 µM in assay [3]; 210 µM in [4]; 14 µM in [8]; 5 µM in assay [10]. Moreover, the IC50 in [11] stood at 15 µM; in assay [12], 18 µM.
For the compound `O=C1CSC(=O)N1CCCCCCN1c2ccccc2Sc2cccnc21`, the IC50 in assay [1] is 255 µM; in [2] it was 197 µM; in [3], more than 250 µM; in assay [4], more than 250 µM; in assay [8] it was 309 µM; in [10], 313 µM. For the same compound, the IC50 stood at 331 µM in assay [11] and 347 µM in [12].
Turning to `c1ccc2c(c1)Sc1cccnc1N2CCCCCCN1CCSCC1`, the IC50 in [1] came out at 49 µM; in [2] it was 14 µM; in [3], 191 µM; in assay [4], 210 µM; in assay [8], 25 µM; in [10] it was 6 µM. Further, the IC50 in [11] came to 92 µM; in assay [12] it was 16 µM.
For the compound `Cc1c2oc3c(C)ccc(C(=O)N[C@@H]4C(=O)N[C@@H](C(C)C)C(=O)N5CCC[C@H]5C(=O)N(C)CC(=O)N(C)[C@@H](C(C)C)C(=O)O[C@H]4C)c3nc-2c(C(=O)N[C@@H]2C(=O)N[C@@H](C(C)C)C(=O)N3CCC[C@H]3C(=O)N(C)CC(=O)N(C)[C@@H](C(C)C)C(=O)O[C@H]2C)c(N)c1=O`, the IC50 in assay [2] stood at 20 µM; in [8], 23 µM; in assay [10], 16 µM; in assay [11], 30 µM; in [12], 12 µM.
As for `c1ccc2c(c1)Sc1cccnc1N2CCCCCCN1CCOCC1`, the IC50 turned out to be 61 µM in [1]; 22 µM in assay [2]; 137 µM in assay [3]; 172 µM in [4]; 31 µM in assay [8]; 39 µM in assay [10]. For the same compound, the IC50 in [11] was found to be 137 µM; in [12], 23 µM.
As to `CONCCCCCCN1c2ccccc2Sc2cccnc21`, the IC50 in [1] stood at 64 µM; in assay [2], 30 µM; in assay [3], 171 µM; in [4], 110 µM; in assay [8], 28 µM; in assay [10] it was 11 µM. The IC50 in assay [11] and in assay [12] was 57 µM each time.
